Assay results reported in patent US7524503B2, “Human cytomegalovirus (HCMV) cytotoxic T cell epitopes, polyepitopes compositions comprising same and diagnostic and prophylactic and therapeutic uses therefor” (priority 2001, dated 2009).
Like-named read-outs stand apart in the source and are kept apart here.

What was measured:
[1] = system: peptide-sensitized autologous PHA blasts or LCLs; format: cell-based, human; design: key to CTL response: Y: Yes; ND: Not detected
CD8+ T cells = assay: CD4+/CD8+ analysis of 20-mer peptides (intracellular IFN-γ staining or depletion ELISPOT); format: cell-based, human
Method: (§1) To determine whether a particular 20-mer peptide contained either a CD4^+- or CD8^+-restricted epitope, or both, CD4^+/CD8^+ cell depletion ELISPOT assays were performed on PBMC from healthy virus carriers. For any one experiment, three populations of cells were used: a) CD8^+-depleted PBMC, b) CD4^+-depleted PBMC, and c) non-depleted PBMC. These populations of cells were tested concurrently with the same peptides in a conventional ELISPOT assay as described herein above. DYNABEADS M-450 (Dynal, Oslo, Norway) that bound specifically to CD4^+- or CD8^+ cells were used to perform the depletion essentially according to manufacturers instructions. Beads were washed twice in cold PBS supplemented with 2% FCS using magnetic isolation. The requisite number of cells was resuspended in cold PBS supplemented with 2% FCS, added to the beads and then incubated at 4° C., in the dark, for 30 mins (CD8^+ beads) or 60 mins (CD4^+ beads). Populations were depleted of CD4^+ or CD8^+ cells using magnetic separation. After depletion, the non-attached cells were removed and washed once in growth medium, counted and used in conventional ELISPOT assay. Depleted cells were used at 1.7×10^5 cells per well and the non-depleted population was used at the standard 2.5×10^5 cells per well. After the depletion step, each respective cell population was assessed for the purity of CD4^+ and CD8^+ T cells by three-colour flow cytometry. Samples of depleted cell populations were stained with anti-CD3 antibody directly conjugated to fluorescein isothiocyanate (FITC), anti-CD4 antibody conjugated with phycoerythrin (PE) fluorochrome, and anti-CD8 antibody conjugated with Tricolor fluorochrome (described below). The percent of CD3^+/CD4^+ cells present within the CD8^+-depleted population and the percent of CD3^+/CD8^+ cells present within the CD4^+-depleted populations were assessed on FACSCalibur cytometer (Becton Dickinson). The purity of each population was greater than 90% and the results from the ELISPOT assays are expressed as the percentage of CD4+ or CD8^+ cells within the depleted populations that responded toward each peptide by producing IFN-γ.
(§2) PBMCs were incubated at 37° C. in RPMI+10% FCS with and without 10 μg/ml peptides for 6 hours. Golgiplug™ (Pharmingen, San Diego, Calif., USA) was added to the samples according to manufacturer's instructions during the second hour of incubation and cells activated with 25 ng/ml phorbol 12-myristidate 13-acetate (PMA; Sigma-Aldrich Co, St. Louis Mo.) and 1 μg/ml iomomycin (Sigma) acted as a positive control. Following the incubation, 1×10^6 cells/sample were washed and resuspended in staining buffer consisting of PBS with GolgiPlug™, 3% FCS and sodium azide. Cells were then stained with FITC conjugated anti-CD3-FITC (UCHT1, Immunotech, Marseille, France), and either Tricolor (TRI) conjugated anti-CD4 (S3.5, Caltag, Burlingame, Calif.) or anti-CD8 (3B5, Caltag) for 30 minutes, 4° C. in the dark. The cells were fixed for 20 min at 4° C. with Cytofix/Cytoperm™ (BD Biosciences) and resuspended in Perm/Wash™ permeabilization buffer (BD Biosciences) according to manufacturers protocol. Fixed cells were stained with phycoerythrin (PE) conjugated anti-human IFN-γ (B27, Pharmingen) for 30 min at 4° C. in the dark. As a negative control, cells were stained with appropriate isotype matched control antibodies. Cells were washed twice in permeabilization buffer and resuspended in staining buffer before analysis by three-colour flow cytometry on a FACSCalibur cytometer (BD Biosciences). All data analysis was carried out using FlowJo software (Tree Star, Inc. San Carlos, CA).
(§3) When using 20-mer peptides to map epitopes by ELISPOT, it is possible that some responses may be MHC class-II restricted, and not necessarily restricted through HLA class I alleles. It was evident throughout this study that some epitopes identified using ELISPOT could not be confirmed using cytotoxicity analysis. […]

CD4+ T cells = assay: as above; format: cell-based, human
Method: as §1, §2, §3

[2] = system: PBMC from healthy HCMV seropositive donors; assay: IFN-γ ELISPOT assay; format: cell-based, human; conditions: peptide 10 μg/ml
Method in brief: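 IFN-γ-secreting T cells were counted as spots, with no-peptide control wells subtracted and means taken from triplicate wells. These spots came from healthy seropositive carriers' PBMC, 2.5×10^5 per well.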

HLA A3 = biological target: T1, HLA A3 (Homo sapiens, UniProt P04439); assay: MHC stabilization assay on T2 cells; format: cell-based; conditions: HLA A3 on transfected T2 cells; relative increase vs no peptide at 26° C.
T1 construct: EGFP; expressed in transfected cells; host or cells: T2 cells
T1 sequence (P04439 25-365): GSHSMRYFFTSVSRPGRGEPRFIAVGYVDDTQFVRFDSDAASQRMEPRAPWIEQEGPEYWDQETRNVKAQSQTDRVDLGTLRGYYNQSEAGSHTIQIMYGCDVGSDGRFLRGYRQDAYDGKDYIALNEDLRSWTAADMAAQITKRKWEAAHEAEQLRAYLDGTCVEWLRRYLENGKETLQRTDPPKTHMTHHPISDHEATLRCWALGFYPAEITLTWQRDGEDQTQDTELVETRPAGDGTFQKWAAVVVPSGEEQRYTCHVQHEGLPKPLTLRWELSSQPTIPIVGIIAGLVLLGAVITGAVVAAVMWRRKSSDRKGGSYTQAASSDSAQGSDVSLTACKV
T1 sequence (P61769 21-119, further chain): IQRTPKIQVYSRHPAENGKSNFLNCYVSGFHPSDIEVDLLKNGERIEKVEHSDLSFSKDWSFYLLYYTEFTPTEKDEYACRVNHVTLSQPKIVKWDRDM

[3] = overlapping 20mer peptides, Table 4

## SICPSQEPMSIYVYALPLKM
[1]; [3]
  CTL response: Y
CD8+ T cells; donor eight
  Responding cells (% CD8): 1.36%
CD4+ T cells; donor eight
  Responding cells (% CD4): 1.18%
[2]; donor eight
  ELISPOT Responses (SFC/10^6 PBMC): 3178 SFC/10^6 PBMC

## YPSAAERKHRHLPVADAVIH
[1]; [3]
  CTL response: Y
CD8+ T cells; donor delta
  Responding cells (% CD8): 0.313%
CD4+ T cells; donor delta
  Responding cells (% CD4): 0%
[2]; donor delta
  ELISPOT Responses (SFC/10^6 PBMC): SE(350) SFC/10^6 PBMC

## SQYRIQGKLEYRHTWDRHDE
[1]; [3]
  CTL response: Y
CD8+ T cells; donor delta
  Responding cells (% CD8): 2.0%
CD4+ T cells; donor delta
  Responding cells (% CD4): 0%
[2]; donor delta
  ELISPOT Responses (SFC/10^6 PBMC): SE(1203) SFC/10^6 PBMC

## QYDPVAALFFFDIDLLLQRG
[1]; [3]
  CTL response: Y
CD8+ T cells; donor seven
  Responding cells (% CD8): 0.03%
CD4+ T cells; donor seven
  Responding cells (% CD4): 0.22%
[2]; donor seven
  ELISPOT Responses (SFC/10^6 PBMC): SB(97) SFC/10^6 PBMC

## GVMTRGRLK
HLA A3
  MSE (MHC stabilization efficiency): +++ (+++ = 200-300%)

## ELLGRLNVY (human cytomegalovirus pp28 CTL epitope peptide)
HLA A3
  MSE (MHC stabilization efficiency): − (− = 0-50%)

## YYTSAFVFPTKDVALRHVVC
[1]; [3]
  CTL response: Y
CD8+ T cells; donor two
  Responding cells (% CD8): 0.04%
CD4+ T cells; donor two
  Responding cells (% CD4): 0.05%
[2]; donor eight
  ELISPOT Responses (SFC/10^6 PBMC): JW(858) SFC/10^6 PBMC
[2]; donor seven
  ELISPOT Responses (SFC/10^6 PBMC): 775 SFC/10^6 PBMC
[2]; donor two
  ELISPOT Responses (SFC/10^6 PBMC): 358 SFC/10^6 PBMC

## ATVQGQNLKYQEFFWDANDI
[1]; [3]
  CTL response: Y
CD8+ T cells; donor twelve
  Responding cells (% CD8): 0%
CD4+ T cells; donor twelve
  Responding cells (% CD4): 0.03%
[2]; donor epsilon
  ELISPOT Responses (SFC/10^6 PBMC): SC(687) SFC/10^6 PBMC
[2]; donor five
  ELISPOT Responses (SFC/10^6 PBMC): 226 SFC/10^6 PBMC
[2]; donor gamma
  ELISPOT Responses (SFC/10^6 PBMC): 202 SFC/10^6 PBMC
[2]; donor three
  ELISPOT Responses (SFC/10^6 PBMC): 189 SFC/10^6 PBMC
[2]; donor twelve
  ELISPOT Responses (SFC/10^6 PBMC): 25 SFC/10^6 PBMC

## TYEKYGNVSVFETSGGLVVF (human cytomegalovirus gB CTL epitope peptide)
[1]; [3]
  CTL response: Y
CD8+ T cells; donor delta
  Responding cells (% CD8): 0.097%
CD4+ T cells; donor delta
  Responding cells (% CD4): 0%
[2]; donor delta
  ELISPOT Responses (SFC/10^6 PBMC): SE(75) SFC/10^6 PBMC

## KLGGALQAK (human cytomegalovirus IE1 CTL epitope peptide)
HLA A3
  MSE (MHC stabilization efficiency): +++ (+++ = 200-300%)

## TAAKAYAVGQFEQPTETPPE (human cytomegalovirus IE2 CTL epitope peptide)
[1]; [3]
  CTL response: Y
CD8+ T cells; donor fourteen
  Responding cells (% CD8): 0.35%
CD4+ T cells; donor fourteen
  Responding cells (% CD4): 0.2%
[2]; donor fourteen
  ELISPOT Responses (SFC/10^6 PBMC): 859 SFC/10^6 PBMC
[2]; donor seven
  ELISPOT Responses (SFC/10^6 PBMC): 326 SFC/10^6 PBMC

## PQYSEHPTFTSQYRIQGKLE
[1]
  CTL response: Y
CD8+ T cells; donor delta
  Responding cells (% CD8): 0.87%
CD8+ T cells; donor four
  Responding cells (% CD8): 0%
CD8+ T cells; donor fourteen
  Responding cells (% CD8): 0.96%
CD4+ T cells; donor delta
  Responding cells (% CD4): 0%
CD4+ T cells; donor four
  Responding cells (% CD4): 0.05%
CD4+ T cells; donor fourteen
  Responding cells (% CD4): 1.69%
[2]; donor delta
  ELISPOT Responses (SFC/10^6 PBMC): 980 SFC/10^6 PBMC
[2]; donor four
  ELISPOT Responses (SFC/10^6 PBMC): MB(413) SFC/10^6 PBMC
[2]; donor fourteen
  ELISPOT Responses (SFC/10^6 PBMC): 1393 SFC/10^6 PBMC

## FEQPTETPPEDLDTLSLAIE (human cytomegalovirus IE2 CTL epitope peptide)
[1]; [3]
  CTL response: Y
CD8+ T cells; donor fourteen
  Responding cells (% CD8): 0.35%
CD4+ T cells; donor fourteen
  Responding cells (% CD4): 0.2%
[2]; donor fourteen
  ELISPOT Responses (SFC/10^6 PBMC): RK(791) SFC/10^6 PBMC

## VFTWPPWQAGILARNLVPMV
[1]; [3]
  CTL response: Y
CD8+ T cells; donor delta
  Responding cells (% CD8): 0.45%
CD4+ T cells; donor delta
  Responding cells (% CD4): 0%
[2]; donor delta
  ELISPOT Responses (SFC/10^6 PBMC): 533 SFC/10^6 PBMC
[2]; donor four
  ELISPOT Responses (SFC/10^6 PBMC): 420 SFC/10^6 PBMC

## WPRERAWALKNPHLAYNPFR (human cytomegalovirus pp150 CTL epitope peptide)
[1]; [3]
  CTL response: Y
CD8+ T cells; donor twelve
  Responding cells (% CD8): 0.27%
CD4+ T cells; donor twelve
  Responding cells (% CD4): 0.03%
[2]; donor twelve
  ELISPOT Responses (SFC/10^6 PBMC): RE(83) SFC/10^6 PBMC

## IIKPGKISHIMLDVAFTSHE
[1]; [3]
  CTL response: Y
CD8+ T cells; donor eight
  Responding cells (% CD8): 0.05%
CD8+ T cells; donor seven
  Responding cells (% CD8): 0.03%
CD4+ T cells; donor eight
  Responding cells (% CD4): 0.04%
CD4+ T cells; donor seven
  Responding cells (% CD4): 0.02%
[2]; donor eight
  ELISPOT Responses (SFC/10^6 PBMC): JW(370) SFC/10^6 PBMC
[2]; donor epsilon
  ELISPOT Responses (SFC/10^6 PBMC): 691 SFC/10^6 PBMC
[2]; donor gamma
  ELISPOT Responses (SFC/10^6 PBMC): 177 SFC/10^6 PBMC
[2]; donor seven
  ELISPOT Responses (SFC/10^6 PBMC): SB(155), SFC/10^6 PBMC
